Test results as given in ChEMBL document CHEMBL5528010, “The discovery of aryl-2-nitroethyl triamino pyrimidines as anti-Trypanosoma brucei agents” (Eur J Med Chem, 2024).
The source made the active and inactive calls. No cut-off for these calls is given here.

What was measured:
Trypanosoma brucei [1] = assay: Anti-parasitic activity against Trypanosoma brucei infected in BALB/c mouse model assessed as reduction of parasitemia at 5 mg/kg/day, ip relative to control; type: functional; parameters: scale not given: the % may be the effect or the level left
Pteridine reductase 1 = target: T1, Pteridine reductase 1 (Leishmania major, UniProt Q01782); assay: Inhibition of N-terminal his 6 tagged recombinant Leishmania major PTR1 expressed in Escherichia coli BL21 (DE3) cells preincubated for 10 mins followed by NADPH addition and measured after 10 to 50 mins by multilabel plate reader method
T1 sequence (Q01782 whole entry): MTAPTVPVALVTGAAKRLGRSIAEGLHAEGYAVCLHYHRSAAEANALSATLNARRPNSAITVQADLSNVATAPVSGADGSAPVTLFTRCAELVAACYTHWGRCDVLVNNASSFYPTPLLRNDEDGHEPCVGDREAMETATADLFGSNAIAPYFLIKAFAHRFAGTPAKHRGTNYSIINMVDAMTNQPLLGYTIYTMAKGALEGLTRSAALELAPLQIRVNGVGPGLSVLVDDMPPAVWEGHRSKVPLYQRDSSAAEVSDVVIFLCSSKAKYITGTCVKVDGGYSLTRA

Trypanosoma brucei [2] = assay: Antiparasitic activity against blood stream form Trypanosoma brucei assessed as parasitic growth inhibition incubated for 72 hrs by resazurin dye based fluorescence analysis; type: functional, organism-based
CYP3A4 = assay: Selectivity index, ratio of IC50 for CYP3A4 (unknown origin) to EC50 for blood stream form Trypanosoma brucei; type: toxicity; conditions: read-out: Ratio IC50/EC50
[3] = Half life in BALB/c mouse at 20 mg/kg, po measured upto 24 hrs by LC-MS/MS analysis; type: ADME, organism-based; conditions: in vivo
[4] = Selectivity index, ratio of CC50 for human THP-1 cells to EC50 for bloodstream form Trypanosoma brucei; type: toxicity; conditions: read-out: Ratio CC50/EC50
hERG = assay: Selectivity index, ratio of IC50 for human ERG to EC50 for blood stream form Trypanosoma brucei; type: toxicity; conditions: read-out: Ratio IC50/EC50
THP-1 = assay: Cytotoxicity against human THP-1 cells assessed as reduction in cell viability measured after 72 hrs by MTT assay; type: functional
[5] = Selectivity index, ratio of GI50 for human A549 cells to EC50 for blood stream form Trypanosoma brucei; type: toxicity; conditions: read-out: Ratio GI50/EC50
Trypanosoma brucei [6] = assay: Anti-parasitic activity against Trypanosoma brucei infected in BALB/c mouse model assessed as reduction of parasitemia at 20 mg/kg administered daily; type: functional, organism-based
[7] = target: Voltage-gated inwardly rectifying potassium channel KCNH2 (Homo sapiens, UniProt Q12809); assay: Inhibition of human ERG incubated for 2 hrs by fluorescence polarization assay; type: toxicity
Cytochrome P450 2D6 = Cytochrome P450 2D6 (Homo sapiens, UniProt P10635); assay: Inhibition of CYP2D6 (unknown origin) expressed in baculovirus infected insect cells using luciferin as substrate preincubated for 30 mins followed by NADPH addition and measured after 30 mins by luminescence based analysis; type: ADME, Insect cell
CYP2C19 = assay: Selectivity index, ratio of IC50 for CYP2C19 (unknown origin) to EC50 for blood stream form Trypanosoma brucei; type: toxicity; conditions: read-out: Ratio IC50/EC50
[8] = Tmax in BALB/c mouse at 20 mg/kg, po measured upto 24 hrs by LC-MS/MS analysis; type: ADME, organism-based; conditions: in vivo
[9] = Mitochondrial toxicity in human A549 cells; type: cell-based
Leishmania infantum = assay: Antiparasitic activity against Leishmania infantum intracellular amastigotes MHOM/BR/1972/BH46 infected in human THP-1 cells assessed as inhibition of parasitic growth at 50 uM pre-infected for 24 hrs followed by compound addition and measured after 48 hrs relative to control; type: functional; conditions: MHOM/BR/1972/BH46, THP-1
Cytochrome P450 3A4 = Cytochrome P450 3A4 (Homo sapiens, UniProt P08684); assay: Inhibition of CYP3A4 (unknown origin) expressed in baculovirus infected insect cells using luciferin as substrate preincubated for 30 mins followed by NADPH addition and measured after 30 mins by luminescence based analysis; type: ADME, Insect cell
CYP1A2 = assay: Selectivity index, ratio of IC50 for CYP1A2 (unknown origin) to EC50 for blood stream form Trypanosoma brucei; type: toxicity; conditions: read-out: Ratio IC50/EC50
Cytochrome P450 2C19 = Cytochrome P450 2C19 (Homo sapiens, UniProt P33261); assay: Inhibition of CYP2C19 (unknown origin) expressed in baculovirus infected insect cells using luciferin as substrate preincubated for 30 mins followed by NADPH addition and measured after 30 mins by luminescence based analysis; type: ADME, Insect cell
[10] = Inhibition of N-terminal his 6 tagged recombinant Trypanosoma brucei PTR1 expressed in Escherichia coli BL21 (DE3) cells preincubated for 10 mins followed by NADPH addition and measured after 10 to 50 mins by multilabel plate reader method; type: cell-based
CYP2D6 = assay: Selectivity index, ratio of IC50 for CYP2D6 (unknown origin) to EC50 for blood stream form Trypanosoma brucei; type: toxicity; conditions: read-out: Ratio IC50/EC50
CYP2C9 = assay: Selectivity index, ratio of IC50 for CYP2C9 (unknown origin) to EC50 for blood stream form Trypanosoma brucei; type: toxicity; conditions: read-out: Ratio IC50/EC50
[11] = Growth inhibition of human A549 cells measured after 48 hrs by celltiter-glo assay; type: toxicity, cell-based
[12] = AUC last in BALB/c mouse at 20 mg/kg, po measured upto 24 hrs by LC-MS/MS analysis; type: ADME, organism-based; conditions: in vivo
[13] = Selectivity index, ratio of IC50 for human A549 cells to EC50 for blood stream form Trypanosoma brucei; type: toxicity; conditions: read-out: Ratio IC50/EC50
[14] = Cmax in BALB/c mouse at 20 mg/kg, po measured upto 24 hrs by LC-MS/MS analysis; type: ADME, organism-based; conditions: in vivo
Cytochrome P450 1A2 = target: T2, Cytochrome P450 1A2 (Homo sapiens, UniProt P05177); assay: Inhibition of CYP1A2 (unknown origin) expressed in baculovirus infected insect cells using luciferin as substrate preincubated for 30 mins followed by NADPH addition and measured after 30 mins by luminescence based analysis; type: ADME, Insect cell
T2 sequence (P05177 whole entry): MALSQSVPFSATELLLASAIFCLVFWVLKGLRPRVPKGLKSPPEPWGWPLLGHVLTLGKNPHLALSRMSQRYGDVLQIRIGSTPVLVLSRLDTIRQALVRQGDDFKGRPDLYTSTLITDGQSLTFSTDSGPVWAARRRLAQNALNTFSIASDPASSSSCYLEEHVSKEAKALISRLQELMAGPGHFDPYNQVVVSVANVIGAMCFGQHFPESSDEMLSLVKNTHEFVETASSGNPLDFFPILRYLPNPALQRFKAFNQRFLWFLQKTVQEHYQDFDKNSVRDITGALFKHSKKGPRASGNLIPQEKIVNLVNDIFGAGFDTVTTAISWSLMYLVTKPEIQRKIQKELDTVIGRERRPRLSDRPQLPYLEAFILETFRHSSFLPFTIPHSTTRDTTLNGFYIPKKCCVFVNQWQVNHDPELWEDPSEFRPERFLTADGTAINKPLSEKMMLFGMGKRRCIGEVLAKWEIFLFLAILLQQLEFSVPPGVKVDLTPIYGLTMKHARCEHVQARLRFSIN

Cytochrome P450 2C9 = Cytochrome P450 2C9 (Homo sapiens, UniProt P11712); assay: Inhibition of CYP2C9 (unknown origin) expressed in baculovirus infected insect cells using luciferin as substrate preincubated for 30 mins followed by NADPH addition and measured after 30 mins by luminescence based analysis; type: ADME, Insect cell
Sequence of Cytochrome P450 2C9 (P11712 whole entry): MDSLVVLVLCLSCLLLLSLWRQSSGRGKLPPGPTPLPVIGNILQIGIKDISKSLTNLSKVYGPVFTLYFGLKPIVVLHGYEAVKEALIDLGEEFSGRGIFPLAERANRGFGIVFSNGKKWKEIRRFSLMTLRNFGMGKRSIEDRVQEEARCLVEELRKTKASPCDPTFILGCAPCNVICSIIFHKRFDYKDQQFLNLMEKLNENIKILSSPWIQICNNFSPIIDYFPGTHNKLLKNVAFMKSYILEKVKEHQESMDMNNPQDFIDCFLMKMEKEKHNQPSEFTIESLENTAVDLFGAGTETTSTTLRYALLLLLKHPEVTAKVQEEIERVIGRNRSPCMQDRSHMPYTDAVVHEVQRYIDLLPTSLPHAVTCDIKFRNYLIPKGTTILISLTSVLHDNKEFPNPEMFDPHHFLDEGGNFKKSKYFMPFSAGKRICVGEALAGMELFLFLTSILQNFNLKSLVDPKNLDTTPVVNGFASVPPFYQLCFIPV

Sequence of Cytochrome P450 2C19 (P33261 whole entry): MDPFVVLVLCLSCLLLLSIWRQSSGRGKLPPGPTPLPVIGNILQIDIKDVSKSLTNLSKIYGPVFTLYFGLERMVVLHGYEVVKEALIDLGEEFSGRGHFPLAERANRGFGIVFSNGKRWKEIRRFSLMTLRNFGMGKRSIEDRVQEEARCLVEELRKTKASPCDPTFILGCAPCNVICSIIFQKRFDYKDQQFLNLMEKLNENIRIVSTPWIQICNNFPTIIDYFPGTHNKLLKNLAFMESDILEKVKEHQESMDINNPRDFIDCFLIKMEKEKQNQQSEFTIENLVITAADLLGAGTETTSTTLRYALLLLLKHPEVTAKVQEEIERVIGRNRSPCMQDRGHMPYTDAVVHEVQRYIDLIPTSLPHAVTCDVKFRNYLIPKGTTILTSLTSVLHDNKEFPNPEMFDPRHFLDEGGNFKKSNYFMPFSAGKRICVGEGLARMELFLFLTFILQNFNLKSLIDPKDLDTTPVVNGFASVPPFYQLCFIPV
Sequence of Voltage-gated inwardly rectifying potassium channel KCNH2 (Q12809 whole entry): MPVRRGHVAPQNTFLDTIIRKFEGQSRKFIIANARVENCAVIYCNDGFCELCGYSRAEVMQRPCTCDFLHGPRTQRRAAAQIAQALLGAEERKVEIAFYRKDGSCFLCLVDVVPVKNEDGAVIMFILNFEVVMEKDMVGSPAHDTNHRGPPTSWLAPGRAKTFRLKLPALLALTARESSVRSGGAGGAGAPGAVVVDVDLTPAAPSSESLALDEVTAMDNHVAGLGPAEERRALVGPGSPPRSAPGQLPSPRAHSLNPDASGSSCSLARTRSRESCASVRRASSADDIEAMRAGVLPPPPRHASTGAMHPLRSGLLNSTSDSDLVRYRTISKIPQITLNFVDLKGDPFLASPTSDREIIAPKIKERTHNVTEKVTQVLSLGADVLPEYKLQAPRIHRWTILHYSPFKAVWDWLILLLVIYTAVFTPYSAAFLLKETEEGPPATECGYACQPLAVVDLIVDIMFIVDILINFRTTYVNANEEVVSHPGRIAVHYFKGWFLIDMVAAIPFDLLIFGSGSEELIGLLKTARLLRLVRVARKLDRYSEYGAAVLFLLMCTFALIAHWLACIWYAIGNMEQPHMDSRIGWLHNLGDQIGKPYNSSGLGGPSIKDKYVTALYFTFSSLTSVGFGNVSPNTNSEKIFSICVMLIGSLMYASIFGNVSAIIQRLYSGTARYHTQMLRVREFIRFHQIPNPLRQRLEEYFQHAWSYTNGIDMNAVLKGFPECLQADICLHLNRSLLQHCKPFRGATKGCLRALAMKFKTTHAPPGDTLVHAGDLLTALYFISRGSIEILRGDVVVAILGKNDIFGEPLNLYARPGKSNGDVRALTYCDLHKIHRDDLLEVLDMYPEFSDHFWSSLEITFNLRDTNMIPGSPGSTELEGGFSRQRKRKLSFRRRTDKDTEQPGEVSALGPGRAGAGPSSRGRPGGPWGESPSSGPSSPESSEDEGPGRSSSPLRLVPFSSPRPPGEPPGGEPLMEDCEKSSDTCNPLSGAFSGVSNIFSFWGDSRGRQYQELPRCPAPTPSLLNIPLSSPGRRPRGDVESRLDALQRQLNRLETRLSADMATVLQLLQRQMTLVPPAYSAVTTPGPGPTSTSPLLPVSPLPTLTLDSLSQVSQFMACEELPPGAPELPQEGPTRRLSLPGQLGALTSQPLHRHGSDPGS
Sequence of Cytochrome P450 2D6 (P10635 whole entry): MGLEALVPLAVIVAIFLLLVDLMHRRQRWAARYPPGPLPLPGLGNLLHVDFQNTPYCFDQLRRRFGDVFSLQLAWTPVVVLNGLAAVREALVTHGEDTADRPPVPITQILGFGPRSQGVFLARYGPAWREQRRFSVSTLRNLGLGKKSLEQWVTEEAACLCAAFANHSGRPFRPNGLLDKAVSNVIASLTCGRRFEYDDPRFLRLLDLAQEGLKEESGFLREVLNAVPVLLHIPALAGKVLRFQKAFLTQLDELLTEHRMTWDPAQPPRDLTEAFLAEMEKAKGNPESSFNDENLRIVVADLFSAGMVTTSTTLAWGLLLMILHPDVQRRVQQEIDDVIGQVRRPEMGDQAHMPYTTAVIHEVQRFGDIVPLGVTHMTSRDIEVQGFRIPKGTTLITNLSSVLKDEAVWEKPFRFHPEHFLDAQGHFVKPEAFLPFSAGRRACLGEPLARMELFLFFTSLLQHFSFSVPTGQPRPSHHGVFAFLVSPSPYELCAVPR
Sequence of Cytochrome P450 3A4 (P08684 whole entry): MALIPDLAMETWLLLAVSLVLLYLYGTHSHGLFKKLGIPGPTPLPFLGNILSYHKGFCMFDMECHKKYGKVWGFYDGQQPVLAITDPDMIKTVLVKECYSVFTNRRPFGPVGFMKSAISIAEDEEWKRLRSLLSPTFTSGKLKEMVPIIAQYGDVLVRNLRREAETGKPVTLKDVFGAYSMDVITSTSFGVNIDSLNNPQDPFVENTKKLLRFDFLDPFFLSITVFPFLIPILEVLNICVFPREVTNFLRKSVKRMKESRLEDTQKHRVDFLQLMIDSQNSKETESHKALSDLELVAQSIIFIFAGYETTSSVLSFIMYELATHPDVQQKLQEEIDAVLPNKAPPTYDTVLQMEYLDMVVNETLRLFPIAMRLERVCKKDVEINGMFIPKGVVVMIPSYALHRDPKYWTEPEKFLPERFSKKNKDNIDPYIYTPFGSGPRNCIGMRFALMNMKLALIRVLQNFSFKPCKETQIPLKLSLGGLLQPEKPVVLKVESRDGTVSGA

N=C(N)c1ccc(OCCCCCOc2ccc(C(=N)N)cc2)cc1 [PENTAMIDINE]
Activity (Trypanosoma brucei [1]): 100% | IC50 (Pteridine reductase 1): 87.1 µM | EC50 (Trypanosoma brucei [2]): 0.004 µM

Nc1nc(N)c(C(C[N+](=O)[O-])c2csc3ccccc23)c(N)n1 (stereo not given)
selectivity ratio (CYP3A4): > 1100 | half-life [3]: 2.1 h | selectivity ratio [4]: 139 | selectivity ratio (hERG): 178 | CC50 (THP-1): 12.5 µM | selectivity ratio [5]: 117 | Activity (Trypanosoma brucei [6]): inactive | IC50 [7]: 16 µM | IC50 (Pteridine reductase 1): 47.4 µM | EC50 (Trypanosoma brucei [2]): 0.09 µM | IC50 (Cytochrome P450 2D6): 10.2 µM | selectivity ratio (CYP2C19): 170 | Tmax [8]: 1 h | IC50 [9]: 10.4 µM | inhibition at 50 µM (Leishmania infantum): 49% | IC50 (Cytochrome P450 3A4): > 100 µM | selectivity ratio (CYP1A2): 33 | IC50 (Cytochrome P450 2C19): 15.3 µM | IC50 [10]: 0.3 µM | selectivity ratio (CYP2D6): 113 | selectivity ratio (CYP2C9): 271 | GI50 at 48 h [11]: 10.6 µM | AUC(0-t) at 24 h [12]: 5290 ng·h/mL | selectivity ratio [13]: 115 | Cmax [14]: 828 ng/mL | IC50 (Cytochrome P450 1A2): 3 µM | IC50 (Cytochrome P450 2C9): 24.4 µM
